Results published in patent US20080280837A1, “Biologically Active Compounds with Anti-Angiogenic Properties” (priority 2004, published 2008).

Target: T1, Human SST5 somatostatin receptor (SSTR5) (Homo sapiens, UniProt P35346)
T1 construct: expressed in transfected cells; host or cells: HEK-293 EBNA
Assay: Filter plate assay for SST5 receptor, displacement of [125I]SST-14
Format: binding
Outline: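 HEK-293 EBNA membranes expressing human SST5 (5.5 μg) incubated 60 min at 25 °C with 4 nM [125I]SST-14 and compound in pH 7.5 Tris/EGTA/MgCl2/sucrose buffer. Bound radioactivity collected on PEI-coated glass fiber filters and counted; triplicate 1:5 dilution series from 125 μM, non-specific binding with excess cold ligand.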

T1 sequence (P35346 whole entry): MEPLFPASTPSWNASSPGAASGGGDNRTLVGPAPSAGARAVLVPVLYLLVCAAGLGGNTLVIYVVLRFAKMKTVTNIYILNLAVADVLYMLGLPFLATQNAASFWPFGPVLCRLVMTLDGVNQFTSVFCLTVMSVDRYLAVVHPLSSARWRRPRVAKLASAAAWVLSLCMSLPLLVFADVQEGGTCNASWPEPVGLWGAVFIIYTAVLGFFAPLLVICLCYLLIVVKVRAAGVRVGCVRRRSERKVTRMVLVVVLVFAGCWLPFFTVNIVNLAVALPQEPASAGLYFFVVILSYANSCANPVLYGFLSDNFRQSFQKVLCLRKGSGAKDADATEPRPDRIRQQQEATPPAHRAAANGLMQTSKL

| SMILES | SSTR5 Inhib 0.5 uM % (inhibition of binding of SST-14 to SSTR5) | SSTR5 Inhib 10 uM % (inhibition of binding of SST-14 to SSTR5) |
| --- | --- | --- |
| COC[C@H]1OC(OCc2ccc(Cl)cc2)[C@H](NC(=O)CCNC(=N)N)[C@@H](OCc2ccc(Cl)cc2)[C@@H]1O (stereo partly drawn) [Compound 123] | 40% | 81% |
| CO[C@H]1[C@H](O)[C@@H](COCc2ccc3ccccc3c2)OC(OCc2ccc3ccccc3c2)[C@@H]1NC(=O)CNC(=N)N (stereo partly drawn) [Compound 126] | 57% | 80% |
| CSC1O[C@H](COCc2ccccc2)[C@@H](O)[C@@H](OCc2ccc3ccccc3c2)[C@H]1NC(=O)CCNC(=N)N (stereo partly drawn) [Compound 128] | 28% | 80% |
| COC[C@H]1OC(OCc2ccc(-c3ccccc3)cc2)[C@H](NC(=O)CNC(=N)N)[C@@H](OCc2ccc(-c3ccccc3)cc2)[C@@H]1O (stereo partly drawn) [Compound 129] | 36% | 80% |
| COC[C@H]1OC(OCc2ccc(-c3ccccc3)cc2)[C@H](NC(=O)CCCNC(=N)N)[C@@H](OCc2ccc(-c3ccccc3)cc2)[C@@H]1O (stereo partly drawn) [Compound 130] | 40% | 80% |
| CSC1O[C@H](COCc2ccc3ccccc3c2)[C@@H](O)[C@@H](OCc2ccc3ccccc3c2)[C@H]1NC(=O)CNC(=N)N (stereo partly drawn) [Compound 131] | 52% | 80% |
| COC[C@H]1OC(OCCc2ccccc2)[C@H](NC(=O)CCCNC(=N)N)[C@@H](OCc2ccc(-c3ccccc3)cc2)[C@@H]1O (stereo partly drawn) [Compound 132] | 39% | 80% |
| COC[C@H]1OC(OCc2ccc3ccccc3c2)[C@H](NC(=O)CNC(=N)N)[C@H](OCc2ccc(Cl)cc2)[C@@H]1O (stereo partly drawn) [Compound 133] | 24% | 80% |
| COC[C@H]1OC(OCc2ccc3ccccc3c2)[C@H](NC(=O)CCCNC(=N)N)[C@@H](OCc2ccccc2)[C@@H]1O (stereo partly drawn) [Compound 135] | 45% | 79% |
| COC[C@H]1OC(OCc2ccc3ccccc3c2)[C@H](NC(=O)CNC(=N)N)[C@@H](OCc2ccc3ccccc3c2)[C@@H]1O (stereo partly drawn) [Compound 137] | 43% | 79% |
| COC[C@H]1OC(OCc2ccccc2)[C@H](NC(=O)CCCNC(=N)N)[C@H](OCc2ccc(Cl)cc2)[C@@H]1O (stereo partly drawn) [Compound 138] | 39% | 79% |
| COC1C(O)C(COCc2ccc3ccccc3c2)OC(OCCc2ccccc2)C1NC(=O)CCCN (stereo not drawn) [Compound 140] | 38% | 78% |
| COC[C@H]1OC(OCc2ccccc2)[C@H](NC(=O)CCCN)[C@@H](OCc2cccc(O)c2)[C@@H]1O (stereo partly drawn) [Compound 144] | 45% | 78% |
| COC[C@H]1OC(OCCc2ccccc2)[C@H](NC(=O)CCCN)[C@@H](OCc2ccc(Cl)cc2)[C@@H]1O (stereo partly drawn) [Compound 145] | 45% | 78% |
| COC[C@H]1OC(OCc2ccc3ccccc3c2)[C@H](NC(=O)CCCN)[C@@H](OCc2cccc(O)c2)[C@@H]1O (stereo partly drawn) [Compound 146] | 40% | 77% |
| COC[C@H]1OC(OCCc2ccccc2)[C@H](NC(=O)CCCN)[C@@H](OCc2cccc(O)c2)[C@@H]1O (stereo partly drawn) [Compound 147] | 40% | 77% |

The remaining lines, values ahead:

| SSTR5 Inhib 0.5 uM % (inhibition of binding of SST-14 to SSTR5) | SSTR5 Inhib 10 uM % (inhibition of binding of SST-14 to SSTR5) | SMILES |
| --- | --- | --- |
| 46% | 81% | COC[C@H]1OC(OCc2ccc(-c3ccccc3)cc2)[C@H](NC(=O)CCCNC(=N)N)[C@@H](OCc2ccc(Cl)cc2)[C@@H]1O (stereo partly drawn) [Compound 120] |
| 32% | 81% | CO[C@H]1[C@H](O)[C@@H](COCc2ccc3ccccc3c2)OC(OCc2ccc(Cl)cc2)[C@@H]1NC(=O)CCCN (stereo partly drawn) [Compound 121] |
| 39% | 81% | CO[C@H]1[C@H](O)[C@@H](COCc2ccc(Cl)cc2)OC(OCc2ccc(Cl)cc2)[C@@H]1NC(=O)CCCN (stereo partly drawn) [Compound 122] |
| 50% | 80% | NCCC(=O)N[C@H]1CO[C@H](COCc2ccc(-c3ccccc3)cc2)[C@@H](O)[C@H]1OCc1ccc(Cl)cc1 [Compound 124] |
| 34% | 80% | CSC1O[C@H](COCc2ccc(Cl)cc2)[C@@H](O)[C@@H](OCc2ccc3ccccc3c2)[C@H]1NC(=O)CCNC(=N)N (stereo partly drawn) [Compound 125] |
| 48% | 80% | CSC1O[C@H](COCc2ccc(-c3ccccc3)cc2)[C@@H](O)[C@@H](OCc2ccc3ccccc3c2)[C@H]1NC(=O)CCCN (stereo partly drawn) [Compound 127] |
| 55% | 79% | COC1C(O)C(COCc2ccc(Cl)cc2)OC(OCc2ccc3ccccc3c2)C1NC(=O)CCCNC(=N)N (stereo not drawn) [Compound 134] |
| 26% | 79% | COC1C(O)C(COCc2ccc(-c3ccccc3)cc2)OC(OCc2ccc(-c3ccccc3)cc2)C1NC(=O)CCNC(=N)N (stereo not drawn) [Compound 136] |
| 34% | 79% | CSC1O[C@H](COCc2ccc(-c3ccccc3)cc2)[C@@H](O)[C@@H](OCc2ccc3ccccc3c2)[C@H]1NC(=O)CNC(=N)N (stereo partly drawn) [Compound 139] |
| 36% | 78% | COC1C(O)C(COCc2ccc(Cl)cc2)OC(OCCc2ccccc2)C1NC(=O)CCCN (stereo not drawn) [Compound 141] |
| 44% | 78% | CSC1O[C@H](COCc2ccc(Cl)cc2)[C@@H](O)[C@@H](OCc2ccccc2)[C@H]1NC(=O)CCNC(=N)N (stereo partly drawn) [Compound 142] |
| 35% | 78% | CO[C@H]1[C@H](O)[C@@H](COCc2ccc(Cl)cc2)OC(OCc2ccc3ccccc3c2)[C@@H]1NC(=O)CCCN (stereo partly drawn) [Compound 143] |
| 38% | 76% | CSC1O[C@H](COCc2ccc(-c3ccccc3)cc2)[C@@H](O)[C@@H](OCc2ccc(Cl)cc2)[C@H]1NC(=O)CCCN (stereo partly drawn) [Compound 148] |
| 35% | 76% | CSC1O[C@H](COCc2ccccc2)[C@@H](O)[C@@H](OCc2ccc(-c3ccccc3)cc2)[C@H]1NC(=O)CNC(=N)N (stereo partly drawn) [Compound 149] |
